Test results taken from US20250262229A1, “APPLICATION OF PHD2 INHIBITOR IN PREPARATION OF DRUGS FOR PREVENTION AND TREATMENT OF PLATELET THROMBUS” (Nankai University, priority 2024, published 2025).

Experiments:
[1] = tested on: SD rat platelets; assay: Collagen-platelet adhesion assay; format: cell-based; conditions: 1 μM IOX2-treated PHD2 protein, 10 μg/mL type I collagen
Description: (§1) The binding of platelets to collagen occurs mainly through VWF as a junction. PHD2 promotes the hydroxylation of collagen to form a three-dimensional structure to better bind to VWF. To verify the above principle, 10 μg/mL type I collagen is mixed with 1 μM IOX2-treated PHD2 protein and inoculated into a black 96-well plate, incubated at 4° C. overnight. Parallel triplicates, for the first one, SD rat platelets (2×10^7 cells/mL) are added and incubated at 37° C. for 90 minutes, after full washing with PBS, the fixed platelets are stained with Calcein-AM dye. For the second one, the primary antibody of VWF (Beijing Boaosen Biology technology Co., LTD., bs-20428R) is incubated at 4° C. overnight, after the excess primary antibody is washed away by PBS, the fluorescent secondary antibody (Abcam, ab150077) is incubated at 37° C. for 1 hour, and the excess secondary antibody is washed away. For the third one, SD rat plasma is added, incubated at room temperature for 4 hours, and then SD rat platelets (2×10^7 cells/mL) are added, incubated at 37° C. for 90 minutes, after full washing with PBS, the fixed platelets are stained with Calcein-AM dye. The fluorescence values of respective groups are measured by a multifunctional microplate reader at the excitation wavelength of 488 nm and the emission wavelength of 525 nm.

[2] = tested on: SD rat platelets; assay: Collagen-VWF-platelet adhesion assay; format: cell-based; conditions: 1 μM IOX2-treated PHD2 protein, 10 μg/mL type I collagen; SD rat plasma then platelets
Description: as §1

[3] = tested on: SD rat platelets; assay: Platelet adhesion to collagen on glass slides, fluorescence imaging analysis; format: cell-based; conditions: IOX2 0.1 μM, 1 μM, 10 μM incubated with 100 μg/mL PHD2 protein; 10 μg/mL type I collagen
Description: Different doses of PHD2 inhibitor IOX2 (0.1 μM, 1 μM, 10 μM) are taken and incubated with 100 μg/mL PHD2 protein at 4° C. for 8 hours, then 10 μg/mL type I collagen is mixed with the above solution and added dropwise to glass slides, and incubated at 4° C. overnight. SD rat platelets (2×10^7 cells/mL) are then inoculated on the glass slides and incubated at 37° C. for 90 minutes. After being fully washed by PBS, the fixed platelets are stained with Calcein-AM dye, fluorescence imaging analysis is performed using fluorescence microscope (Leica TCS SP8, Germany), and statistical analysis is performed on platelets with collagen adhesion using Image J software. The results are shown as in FIG. 5A.

[4] = tested on: binding of collagen-VWF; assay: Collagen-VWF binding assay; conditions: 1 μM IOX2-treated PHD2 protein, 10 μg/mL type I collagen; VWF antibody detection
Description: as §1

[5] = tested on: soft tissue injury in rats; assay: Blood microcirculation disorder induced by acute soft tissue injury in rats; format: in vivo, SD rats; conditions: N-acetylcysteine 70 mg/kg/d i.p., ginsenoside CK 25 and 12.5 mg/kg/d i.p., vs model group; for whole blood viscosity: low, medium and high shear rate
Description: SD male rats are taken and randomly divided into a blank control group, a model group, a positive control group (N-acetylcysteine, intraperitoneally injected at 70 milligrams per kilogram per day abbreviated as mg/kg/d), and high and low dose ginsenoside CK groups (intraperitoneally injected at 25 mg/kg/d and 12.5 mg/kg/d). The blank control group and the model group are given the same volume of sterile drinking water in the same manner. The molding is investigated three days after pre-administration. The rats are first anesthetized with 1% pentobarbital sodium (40 mg/kg), and the hair of the right buttocks and posterior thighs of the anesthetized rats are removed and fixed on the plate of an acute soft tissue injury modeling device. A 100 g weight is selected to impact the lateral aspect of the mid-right calf with five free-falls from a height of 100 centimeters (cm) causing soft tissue injury. The rats with successful modeling are continued to be administered for 4 days, and 1 hour after the last administration, the rats are anesthetized, blood is collected from the abdominal aorta with a blood viscometer to detect the viscosity of whole blood of the rats with high shear rate [200 s], medium shear rate [30 s], low shear rate [3 s], and low shear rate [1 s]. Coagulation parameters, such as erythrocyte aggregation index, erythrocyte packed-cell volume, platelet number and mean platelet volume, are determined by using a blood cell analyzer.

[6] = tested on: LPS-induced DIC model in mice; assay: LPS-induced disseminated intravascular coagulation (DIC) model in mice; format: in vivo; conditions: aspirin 10 mg/kg taken orally, Daprodustat 10 mg/kg intraperitoneal injection
Description: The sh-PHD2 mice and sh-ctrl blank mice are randomly divided into a blank group and a model group, with 6 mice in each group. The model group is injected intraperitoneally with 10 milligrams per kilogram (mg/kg) lipopolysaccharide abbreviated as LPS (Beijing Solarbio Science & Technology Co., Ltd., Cat. No. L8880) to induce the mice to establish a disseminated intravascular coagulation (DIC) model, and the blank group is injected intraperitoneally with the corresponding volume of physiological saline. After 2 hours, the mice are anesthetized by intraperitoneal injection of 1% pentobarbital sodium (40 mg/kg), and the tail is cut at a site of 3 millimeters (mm) from the tip of the tail of each mouse, and the tail is placed vertically in 37° C. physiological saline immediately after the first drop of blood is sucked up on filter paper to record the tail bleeding time.
In addition to the blank group, the other groups use the method of the embodiment 1 to prepare the LPS-induced DIC model in mice, and the administration group is given drug intervention 1 hour before modeling.

[7] = target: T1, PHD2 protein (Homo sapiens, UniProt Q9GZT9); assay: Surface plasmon resonance (SPR) interaction analysis with PHD2; format: binding; conditions: Biacore T200, CM5 chip, 1.56 μM to 200 μM, read-out: dissociation constants KD with PHD2 protein
T1 sequence (Q9GZT9 whole entry): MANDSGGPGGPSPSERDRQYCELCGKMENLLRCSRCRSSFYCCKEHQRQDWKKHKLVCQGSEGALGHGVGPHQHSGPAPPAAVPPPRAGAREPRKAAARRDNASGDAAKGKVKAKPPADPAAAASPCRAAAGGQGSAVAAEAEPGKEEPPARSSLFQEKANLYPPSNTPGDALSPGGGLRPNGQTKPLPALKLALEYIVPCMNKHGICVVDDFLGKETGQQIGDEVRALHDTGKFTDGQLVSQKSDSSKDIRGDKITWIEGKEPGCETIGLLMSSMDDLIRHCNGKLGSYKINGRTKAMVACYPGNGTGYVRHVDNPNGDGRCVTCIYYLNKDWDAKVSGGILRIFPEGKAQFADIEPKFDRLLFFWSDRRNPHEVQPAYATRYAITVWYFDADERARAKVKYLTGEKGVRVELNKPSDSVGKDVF
Description: The interaction between these active natural products and recombinant human PHD2 protein is analyzed by surface plasmon resonance (SPR) technique using a Biacore™ T200 surface plasmon resonance analyzer from GE healthcare. The CM5 chip is selected, the purified PHD2 protein is immobilized on the channel of the chip, and the active natural product solution as a mobile phase is flowed through the chip, with the concentration ranging from 1.56 μM to 200 μM. The flow rate of mobile phase is 30 μL/min, and the dissociation is monitored for 150 seconds.

[8] = target: T1, PHD2 protein; assay: PHD2 enzyme activity, 2-oxogalarate-phenylenediamine method; format: biochemical; set-up: purchased Abcam ab132273
Description: 1 micromole per liter (μM) PHD2 inhibitor is incubated with 100 micrograms per milliliter (μg/mL) PHD2 protein (Abcam, Cat. No. ab132273) at 4° C. for 8 hours, and its inhibitory effect on PHD2 enzyme activity is determined according to the 2-oxogalarate-phenylenediamine method.
100 μL of PHD2 enzyme solution incubated with the PHD2 inhibitor is taken and 100 μL of reaction substrate (300 μM of 2-oxogalarate, 150 μM of Fe^2+) is added, followed by 100 μL of 0.5 moles (M) of hydrogen chloride (HCl) and 10 mg/mL of o-phenylenediamine, and the reaction is carried out at 95° C. for 15 minutes after mixing, so as to obtain a reaction product. The reaction product is centrifuged to taken the supernatant, 10 μL of 1.25 M of sodium hydroxide (NaOH) is added to terminate the reaction, and the fluorescence value of the reaction is determined using 340 nanometers (nm) excitation at the emission wavelength of 420 nm, the results are shown in FIG. 3B.

[9] = tested on: Pseudomonas aeruginosa infected mice; assay: Blood coagulation function in mice infected with Pseudomonas aeruginosa; format: in vivo, ICR (CD-1) mice; conditions: plasma 24 hours after infection; polydatin 10, 20, 40 mg/kg i.p.; aspirin 30 mg/kg gavage; Daprodustat 15 mg/kg i.p.; vs model group
Description: ICR (CD-1) male mice are taken and randomly divided into 7 groups (6 mice in each group), which are a blank control group, a model group, an aspirin positive control group (gavage at 30 mg/kg), a Daprodustat-positive control group (intraperitoneally injected at 15 mg/kg), and low, medium and high doses of polydatin group (intraperitoneally injected at 10 mg/kg, 20 mg/kg, 40 mg/kg). Mice are anesthetized by intraperitoneal injection of 1% pentobarbital sodium (40 mg/kg). Activated Pseudomonas aeruginosa (1×10^7/20 μL) is added dropwise into the nasal cavity of mice in the model group and each administration group, and an equal amount of physiological saline is dropped into the blank control group. The respective groups are administered at 0 and 8 hours after molding, respectively. 24 hours after infection, plasma is obtained by blood sampling from mouse eyeballs, and four indexes of coagulation (prothrombin time, activated partial […] and fibrinogen) are measured by a semi-automatic coagulation analyzer.

`O=C(O)CNC(=O)c1c(O)c2ccccc2n(Cc2ccccc2)c1=O` [IOX2, N-[[1,2-dihydro-4-hydroxy-2-oxo-1-(phenylmethyl)-3-quinolinyl]carbonyl]-glycine] was tested, and the PHD2-mediated collagen-platelet adhesion [1] was “significantly reduces the occurrence of PHD2-mediated platelet adhesion”, the collagen-VWF-platelet adhesion [2] was “blocking the binding of collagen-VWF-platelet adhesion” and the “platelet adhesion to collagen (fluorescence imaging)” value [3] was “inhibits platelet adhesion to collagen in a concentration-dependent manner”. For the same molecule, the “binding of collagen-VWF” value [4] was “affecting the binding of collagen-VWF”.

In the case of `CC(=O)N[C@@H](CS)C(=O)O` [N-acetylcysteine, reference compound], the erythrocyte aggregation index [5] is reported as “significantly reduce”, the erythrocyte packed-cell volume [5] is reported as “significantly reduce” and the mean platelet volume [5] is reported as “improved”. The platelet number [5] was “significantly reduce” and the whole blood viscosity [5] was “improved to a certain extent”.

For `CC(=O)Oc1ccccc1C(=O)O` [aspirin], the “pulmonary thrombi, Masson staining of lung tissues” value [6] was “significantly inhibit the formation of thrombus”, the tail bleeding time ([6]; vs LPS group) was “significantly increase” and the tail bleeding volume ([6]; vs LPS group) was “significantly increase”.

`CC(C)=CCC[C@](C)(O[C@@H]1O[C@H](CO)[C@@H](O)[C@H](O)[C@H]1O)[C@H]1CC[C@]2(C)[C@@H]1[C@H](O)C[C@@H]1[C@@]3(C)CC[C@H](O)C(C)(C)[C@@H]3CC[C@]12C` [ginsenoside CK] was tested, and the Kd [7] was 18 µM, the erythrocyte aggregation index [5] was “significantly reduce” and the erythrocyte packed-cell volume [5] was “significantly reduce”. The mean platelet volume [5] was “improved”, the platelet number [5] was “significantly reduce” and the whole blood viscosity [5] was “improved to a certain extent”. The “inhibition of PHD2 enzyme activity” value ([8]; ginsenoside CK at 0.5 μM, 5 μM, 50 μM) was “inhibit the PHD2 enzyme activity in a concentration gradient”.

For `OC[C@H]1O[C@@H](Oc2cc(O)cc(/C=C/c3ccc(O)cc3)c2)[C@H](O)[C@@H](O)[C@@H]1O` [polydatin], the Kd [7] was 23.5 µM, the “activated partial thrombin time” value [9] was “significantly prolong” and the “fibrinogen content in blood” value [9] was “reduced”. For the same molecule, the prothrombin time [9] was “significantly prolong”, the thrombin time [9] was “significantly prolong” and the “inhibition of PHD2 enzyme activity” value ([8]; polydatin at 0.1 μM, 1 μM, 10 μM) was “inhibit the PHD2 enzyme activity in a concentration gradient”.
